Consider 13 compounds from paper PMC11440591 (Journal of Medicinal Chemistry, 2024).

Structures are written as SMILES. Like-named read-outs stand apart in the source and are kept apart here.

One data set concerns EBOV. Particulars: cited from earlier work.
The next data set relates to VeroE6 cells. Particulars: cited from earlier work.
The test system of another data set is EBOV like particles. The conditions noted are these: cited from earlier work.
In data set [1] the target is T1, hERG potassium channel (Homo sapiens, UniProt Q12809). Nature of the data set: in vitro.
T1 sequence (Q12809 whole entry): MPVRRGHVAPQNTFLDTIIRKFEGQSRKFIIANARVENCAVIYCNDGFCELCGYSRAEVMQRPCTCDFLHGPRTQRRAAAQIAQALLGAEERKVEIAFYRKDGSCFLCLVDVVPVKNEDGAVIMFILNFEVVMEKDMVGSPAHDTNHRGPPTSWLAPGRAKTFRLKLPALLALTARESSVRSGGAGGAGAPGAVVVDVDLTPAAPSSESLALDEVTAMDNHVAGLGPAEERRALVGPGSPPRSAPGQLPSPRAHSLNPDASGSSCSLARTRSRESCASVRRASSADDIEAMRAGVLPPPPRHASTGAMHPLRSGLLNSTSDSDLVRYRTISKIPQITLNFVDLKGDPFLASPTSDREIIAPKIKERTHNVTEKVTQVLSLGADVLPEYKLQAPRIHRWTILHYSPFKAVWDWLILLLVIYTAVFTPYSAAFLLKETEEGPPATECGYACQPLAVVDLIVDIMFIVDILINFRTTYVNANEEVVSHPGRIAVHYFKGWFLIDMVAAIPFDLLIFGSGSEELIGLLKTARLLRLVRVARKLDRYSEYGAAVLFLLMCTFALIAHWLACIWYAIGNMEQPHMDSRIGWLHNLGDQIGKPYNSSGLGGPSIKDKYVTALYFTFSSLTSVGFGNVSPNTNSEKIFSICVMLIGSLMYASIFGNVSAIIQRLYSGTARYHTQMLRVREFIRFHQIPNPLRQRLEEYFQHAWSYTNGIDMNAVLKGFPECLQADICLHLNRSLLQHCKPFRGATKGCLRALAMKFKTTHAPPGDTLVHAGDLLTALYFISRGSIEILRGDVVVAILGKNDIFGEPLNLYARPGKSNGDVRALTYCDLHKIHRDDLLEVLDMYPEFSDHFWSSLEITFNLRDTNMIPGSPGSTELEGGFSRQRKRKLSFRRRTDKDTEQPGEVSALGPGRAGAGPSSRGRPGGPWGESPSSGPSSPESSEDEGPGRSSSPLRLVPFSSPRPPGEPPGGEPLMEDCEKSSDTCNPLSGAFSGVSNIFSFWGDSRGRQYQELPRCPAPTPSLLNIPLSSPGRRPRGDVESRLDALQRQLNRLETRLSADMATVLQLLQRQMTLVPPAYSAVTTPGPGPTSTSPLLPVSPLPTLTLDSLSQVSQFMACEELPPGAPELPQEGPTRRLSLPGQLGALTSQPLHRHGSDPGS
Data set [2] has as its system pseudotypes with the SUDV envelope (pSUDV). Nature of the data set: microbe, parasite or virus in culture. The data set is classed as cell-based. The conditions noted are these: Sudan ebolavirus, read-out: EC50 (pSUDV).
Data set [3] can be described thus: in vitro. The conditions noted are these: chlorocebus sabaeus.
For data set [4], the target named is EBOV-GPcl/NPC1-domain C interaction (Zaire ebolavirus, UniProt Q05320). The class given is binding, EBOV; Homo sapiens.
Sequence of EBOV-GPcl/NPC1-domain C interaction (Q05320 33-190 limits assumed): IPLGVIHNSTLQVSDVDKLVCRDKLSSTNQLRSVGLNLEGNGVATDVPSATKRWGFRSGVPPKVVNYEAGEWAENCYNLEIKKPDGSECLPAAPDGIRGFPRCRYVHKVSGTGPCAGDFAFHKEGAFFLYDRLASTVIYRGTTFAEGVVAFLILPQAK
Sequence of EBOV-GPcl/NPC1-domain C interaction (Q05320 502-676 limits assumed): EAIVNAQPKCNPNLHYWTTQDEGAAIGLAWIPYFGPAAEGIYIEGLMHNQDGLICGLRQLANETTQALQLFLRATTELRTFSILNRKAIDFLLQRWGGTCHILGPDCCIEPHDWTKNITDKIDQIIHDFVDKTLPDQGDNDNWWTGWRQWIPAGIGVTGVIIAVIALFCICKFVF
A further data set concerns the target Nav1.5 (Homo sapiens, UniProt Q14524). Nature of the data set: in vitro.
Data set [5] has as its system wild-type Zaire EBOV Mayinga 1976 strain (EBOV May). The experiment in a line: microbe, parasite or virus in culture. Particulars: Zaire ebolavirus, Vero C1008, 72 h, read-out: EC50 (EBOV May).
Data set [6] has as its system VSV-G-pseudotype virus (pVSV-G). Nature of the data set: microbe, parasite or virus in culture. The data set is classed as cell-based. The conditions noted are these: Vesicular stomatitis virus, read-out: %inh@10µM (pVSV-G).
For data set [7] the following is noted: male, BALB/c, mouse, in vivo.
Data set [8] is described as follows: in vivo. The conditions noted are these: male, BALB/c, mouse.
For data set [9], the system named is EBOV-GP-pseudotyped virus (pEBOV). Nature of the data set: microbe, parasite or virus in culture. Particulars: Vesicular stomatitis virus, Vero C1008, 24 h, read-out: EC50 (pEBOV).
Data set [10] in a line: in vitro. The conditions noted are these: human, microsomes, pH 7.4.
Data set [11] deals with T1, hERG potassium channel. The experiment in a line: cell-based.
Data set [12] is described as follows: in vitro. The conditions noted are these: CD-1, mouse, microsomes, pH 7.4.
Data set [13] in a line: in vivo. The conditions noted are these: both, C57BL/6, mouse, po.
Data set [14] relates to EBOV-GP-pseudotyped virus (pEBOV).
Data set [15] concerns wild-type Zaire EBOV Mayinga 1976 strain (EBOV May).

Sequence of Nav1.5 (Q14524 whole entry): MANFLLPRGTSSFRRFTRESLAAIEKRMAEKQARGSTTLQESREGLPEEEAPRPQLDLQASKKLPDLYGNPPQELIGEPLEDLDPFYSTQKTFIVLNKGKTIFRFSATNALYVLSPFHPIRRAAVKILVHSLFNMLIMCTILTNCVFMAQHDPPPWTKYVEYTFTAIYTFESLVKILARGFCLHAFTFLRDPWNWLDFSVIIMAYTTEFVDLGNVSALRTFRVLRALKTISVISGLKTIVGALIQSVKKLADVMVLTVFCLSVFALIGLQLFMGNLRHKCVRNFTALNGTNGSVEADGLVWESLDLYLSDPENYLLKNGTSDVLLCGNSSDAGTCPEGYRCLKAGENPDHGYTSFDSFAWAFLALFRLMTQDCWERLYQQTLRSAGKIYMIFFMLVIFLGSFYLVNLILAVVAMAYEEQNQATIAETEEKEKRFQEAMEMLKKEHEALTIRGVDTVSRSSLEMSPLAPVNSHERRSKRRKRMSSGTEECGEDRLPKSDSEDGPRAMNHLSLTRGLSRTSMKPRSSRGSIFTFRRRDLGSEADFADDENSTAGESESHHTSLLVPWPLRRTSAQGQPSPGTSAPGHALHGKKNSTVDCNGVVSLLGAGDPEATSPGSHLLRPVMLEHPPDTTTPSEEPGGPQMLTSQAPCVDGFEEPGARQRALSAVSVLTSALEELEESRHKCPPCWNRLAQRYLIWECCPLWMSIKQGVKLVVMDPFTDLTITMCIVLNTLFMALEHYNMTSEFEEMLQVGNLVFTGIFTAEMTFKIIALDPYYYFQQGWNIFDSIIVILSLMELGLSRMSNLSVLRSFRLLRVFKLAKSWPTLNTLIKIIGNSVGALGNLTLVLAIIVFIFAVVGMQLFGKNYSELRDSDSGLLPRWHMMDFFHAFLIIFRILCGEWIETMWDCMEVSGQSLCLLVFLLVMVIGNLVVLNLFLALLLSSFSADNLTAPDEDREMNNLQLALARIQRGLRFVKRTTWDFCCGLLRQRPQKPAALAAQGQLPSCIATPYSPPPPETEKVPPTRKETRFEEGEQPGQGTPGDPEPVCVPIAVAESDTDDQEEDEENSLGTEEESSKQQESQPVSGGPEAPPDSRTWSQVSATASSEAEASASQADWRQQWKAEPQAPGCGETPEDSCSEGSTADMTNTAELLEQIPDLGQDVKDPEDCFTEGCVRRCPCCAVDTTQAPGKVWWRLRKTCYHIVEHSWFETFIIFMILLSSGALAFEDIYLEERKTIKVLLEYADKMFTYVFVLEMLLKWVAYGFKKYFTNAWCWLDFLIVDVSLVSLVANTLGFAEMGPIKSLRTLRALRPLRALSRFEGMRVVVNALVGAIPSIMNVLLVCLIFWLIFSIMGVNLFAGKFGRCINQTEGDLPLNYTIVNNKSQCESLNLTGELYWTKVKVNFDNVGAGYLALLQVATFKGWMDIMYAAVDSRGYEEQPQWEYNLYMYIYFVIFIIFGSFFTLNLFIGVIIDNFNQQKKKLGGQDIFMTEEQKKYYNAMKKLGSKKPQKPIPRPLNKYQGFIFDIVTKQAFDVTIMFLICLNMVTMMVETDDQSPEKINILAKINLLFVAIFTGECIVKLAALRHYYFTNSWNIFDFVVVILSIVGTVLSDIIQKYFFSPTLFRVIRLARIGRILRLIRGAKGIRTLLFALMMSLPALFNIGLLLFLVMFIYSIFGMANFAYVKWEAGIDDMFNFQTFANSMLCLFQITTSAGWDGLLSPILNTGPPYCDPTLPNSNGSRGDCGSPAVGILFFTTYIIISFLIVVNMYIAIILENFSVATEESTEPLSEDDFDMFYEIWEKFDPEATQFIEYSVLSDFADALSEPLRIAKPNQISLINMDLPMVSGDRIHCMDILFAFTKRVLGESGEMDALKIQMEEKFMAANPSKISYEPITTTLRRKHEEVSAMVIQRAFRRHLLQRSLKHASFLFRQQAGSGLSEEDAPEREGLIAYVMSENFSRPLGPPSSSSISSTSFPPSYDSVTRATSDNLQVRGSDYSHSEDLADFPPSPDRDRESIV

In the case of `COC(=O)c1ccc(COc2ccccc2CN2CCN(C(=O)CNC(=O)CC34CC5CC(CC(C5)C3)C4)CC2)cc1` [3.47], the EC50 in the data set on EBOV is 0.16 µM.
Turning to `NC(=O)c1nc(F)cnc1O` [Favipiravir, favipiravir], in the data set with EBOV, the IC50 is 67 µM. The CC50 in the data set on VeroE6 cells is over 1000 µM.
Take `CN(C)CCCN1c2ccccc2CCc2ccccc21` [Imipramine, imipramine]: in the data set with EBOV like particles, the IC50 is 13.2 µM.
As for `CN(C)CCOc1ccc(/C(=C(/CCCl)c2ccccc2)c2ccccc2)cc1` [Toremifene, toremifene], the CC50 with VeroE6 cells was 16 µM.
For `O=C(Nc1ccccc1)c1ccc(-c2ccccc2OC2CCNCC2)s1` [compound 1, N-Phenyl-5-(2-(piperidin-4-yloxy)phenyl)thiophene-2-carboxamide], the IC50 on hERG potassium channel [1] stood at 10.6 µM; against Nav1.5, 20.4 µM. Besides, the EC50 in [2] was found to be 2.64 µM; in data set [5], 1.5 µM; in data set [9] it was 5.91 µM. For the same compound, the CC50 at 24 h in the data set “in vitro [3]” stood at 34 µM. In [4], the “inhibitory effect on EBOV-GPcl/NPC1-domain C interaction (in words)” value is “comparable effect than the control imipramine”. Also, the inhibition at 10 µM in data set [6] turned out to be 0.66%. Further, the brain concentration is 330 nM in data set [7] (ip, 10 mg/kg) and 810 nM in data set [7] (po, 50 mg/kg). Moreover, the estimated plasma concentration in data set [7] (ip, 10 mg/kg) is 0.32 µM; in data set [7] (po, 50 mg/kg), 0.29 µM. The half-life at 24 h in the data set “in vivo [8]” (ip, 10 mg/kg) was 1.96 h; in “in vivo [8]” (po, 50 mg/kg) it was 5.6 h. This compound displayed a Cmax at 24 h in “in vivo [8]” (ip, 10 mg/kg) of 122 ng/mL.
Consider `O=C(Nc1ccccc1)c1ccc(-c2cccc(OC3CCNCC3)c2)s1` [compound 53, N-Phenyl-5-(3-(piperidin-4-yloxy)phenyl)thiophene-2-carboxamide], for which the figures for the concentration giving a half-maximal response (EC50) in data set [2], in data set [5] and in data set [9] were 3.05 µM, 0.3 µM and 7.19 µM, respectively. In the data set “in vitro [3]”, this compound had a CC50 at 24 h of 33.9 µM. Moreover, the inhibition at 10 µM in data set [6] turned out to be 7%.
Take `O=C(Nc1ccccc1)c1ccc(-c2ccc(OC3CCNCC3)cc2)s1` [compound 57, N-Phenyl-5-(4-(piperidin-4-yloxy)phenyl)thiophene-2-carboxamide]: the half-life at 1 h, 10 µM in the data set “in vitro [10]” was 2.17 ± 0.15 h; in “in vitro [12]”, 0.483 ± 0.0833 h. The values for the IC50 against hERG potassium channel [11], against hERG potassium channel [1] and against Nav1.5 were about 50 µM, 48.9 µM and over 50 µM, respectively. The values for the EC50 in [2], in data set [5] and in data set [9] were 1.68 µM, 0.19 µM and 8.16 µM, respectively. The CC50 at 24 h in “in vitro [3]” stood at 11 µM. Besides, the “inhibitory effect on EBOV-GPcl/NPC1-domain C interaction (in words)” value in [4] is “comparable effect than the control imipramine”. For the same compound, the inhibition at 10 µM in data set [6] amounted to 24%. The compound further returned an MTD in the data set “in vivo [13]” of 100 mg/kg. The brain concentration turned out to be 4430 nM in data set [7] (ip, 10 mg/kg) and 14800 nM in data set [7] (po, 50 mg/kg). For the same compound, the estimated plasma concentration in data set [7] (ip, 10 mg/kg) was 2.74 µM; in data set [7] (po, 50 mg/kg) it was 2.04 µM. The half-life at 24 h was 5.18 h in “in vivo [8]” (ip, 10 mg/kg) and 8.76 h in “in vivo [8]” (po, 50 mg/kg). The Cmax in “in vivo [8]” (ip, 10 mg/kg) amounted to 1680 ng/mL; in the data set “in vivo [8]” (po, 50 mg/kg) it was 773 ng/mL. In addition, the Cmax at 24 h came out at 1040 ng/mL in “in vivo [8]” (ip, 10 mg/kg) and 5600 ng/mL in “in vivo [8]” (po, 50 mg/kg). For the same compound, the Tmax came to 4 h in “in vivo [8]” (ip, 10 mg/kg) and 4 h in the data set “in vivo [8]” (po, 50 mg/kg). The Tmax at 24 h in the data set “in vivo [8]” (ip, 10 mg/kg) was found to be 0.5 h; in the data set “in vivo [8]” (po, 50 mg/kg), 2 h.
With `O=C(NCCC1CCN(Cc2ccccc2)CC1)c1cnc(-c2ccc(OC3CCNCC3)cc2)s1` [compound 79, N-(2-(1-Benzylpiperidin-4-yl)ethyl)-2-(4-(piperidin-4-yloxy)phenyl)thiazole-5-carboxamide], the “SI (CC50/EC50)” value in data set [14] was determined as 12; in data set [15], 12.8. In “in vitro [3]”, this compound registered a CC50 of over 100 µM. The EC50 in [5] came out at 7.83 µM; in [9] it was 8.3 µM. In addition, the inhibition at 10 µM in [6] came out at 39%.
With `O=C(NCCc1ccccc1)c1cnc(-c2ccccc2OC2CCNCC2)s1` [compound 97, N-Phenethyl-2-(2-(piperidin-4-yloxy)phenyl)thiazole-5-carboxamide], the entries for the “SI (CC50/EC50)” value in [14] and in [15] were 14.5 and 5.8, respectively. Further, the CC50 at 24 h in the data set “in vitro [3]” turned out to be 91 µM. Besides, the EC50 in [5] stood at 15.7 µM; in [9], 6.27 µM. For the same compound, the inhibition at 10 µM in data set [6] came to 18%.
Consider `O=C(Nc1ccc(Cl)cc1)c1ccc(-c2ccccc2OC2CCNCC2)o1` [compound 99, N-(4-Chlorophenyl)-5-(2-(piperidin-4-yloxy)phenyl)furan-2-carboxamide], for which the “SI (CC50/EC50)” value in data set [14] turned out to be 3.1; in data set [15] it was 7.9. This compound came in with a CC50 at 24 h in “in vitro [3]” of 20 µM. Further, the EC50 stood at 2.53 µM in [5] and 6.35 µM in [9]. In addition, the inhibition at 10 µM in data set [6] was determined as 10%.
Regarding `O=C(NCCC1CCN(Cc2ccccc2)CC1)c1ccc(-c2ccccc2OC2CCNCC2)o1` [compound 101, N-(2-(1-Benzylpiperidin-4-yl)ethyl)-5-(2-(piperidin-4-yloxy)phenyl)furan-2-carboxamide], the “SI (CC50/EC50)” value in data set [14] is 18.7; in [15] it was 9.5. In addition, the CC50 at 24 h in “in vitro [3]” came to 90 µM. For the same compound, the EC50 in [5] stood at 9.5 µM; in data set [9], 4.81 µM. The inhibition at 10 µM in [6] was 39%.
Consider `O=C(NCCc1ccccc1)c1ccc(-c2ccccc2OC2CCNCC2)o1` [compound 102, N-Phenethyl-5-(2-(piperidin-4-yloxy)phenyl)furan-2-carboxamide], for which the “SI (CC50/EC50)” value in [14] was found to be 12.77; in data set [15], 4.5. The same compound yielded a CC50 at 24 h in “in vitro [3]” of 27.6 µM. Further, the figures for the EC50 in [5] and in [9] were 6.19 µM and 2.16 µM, respectively. Besides, the inhibition at 10 µM in data set [6] was -23%.
`O=C(Nc1ccccc1)c1ccc(-c2cccc(OC3CCNCC3)c2)o1` [compound 103, N-Phenyl-5-(3-(piperidin-4-yloxy)phenyl)furan-2-carboxamide]: the “SI (CC50/EC50)” value in data set [14] amounted to 1.7; in [15], 1.5. The same compound registered a CC50 at 24 h in the data set “in vitro [3]” of 14.1 µM. Also, the EC50 came out at 9.26 µM in data set [5] and 8.27 µM in data set [9]. Moreover, the inhibition at 10 µM in data set [6] is -18%.

As usually defined, the EC50 is the concentration at which the effect is half-maximal. The IC50 is the concentration that gives 50% inhibition. In general, half-life refers to how long it takes for the measured level to halve. As a reminder, the Cmax is the peak of the concentration-time curve. The Tmax is the time at which the peak concentration occurs.
